This note sets out measurements from patent US20050137220A1 (Pharmacia Corporation, priority 2003, published 2005).

Broadly, the IC50 is the concentration at which inhibition is half-maximal.

Counter-ions that a name gives are not always drawn. Like-named read-outs stand apart in the source and are kept apart here.

This assay has as its system U937 cells. In words: U937 Cell TNFα Release Assay. Conditions: mixture of stereoisomers implied unless otherwise noted. The assay is classed as cell-based, human.
The mark [1] stands for this setting: Homo sapiens, U-937, 4 h, read-out: TNF Release Assay Avg. IC50, LPS-stimulated differentiated U937 cells, TNFα by ELISA.
[2] abbreviates: Homo sapiens, U-937, read-out: TNF Release Assay Avg. IC50, LPS-stimulated differentiated U937 cells, TNFα by ELISA.
Where [3] appears, read: read-out: TNF Release Assay Avg. IC50, LPS-stimulated differentiated U937 cells, TNFα by ELISA, hydrochloride.

With `COc1ccc2[nH]c3c(c2c1)CC(CO)NC3C(=O)O` (stereo not drawn) [Example 24, 3-(hydroxymethyl)-6-methoxy-2,3,4,9-tetrahydro-1H-beta-carboline-1-carboxylic acid], the half-inhibitory concentration (IC50) under setting [1] was over 100 µM.
Regarding `COc1ccc2[nH]c3c(c2c1)CCN[C@@H]3C(=O)O` [Example 67, (1S)-6-methoxy-2,3,4,9-tetrahydro-1H-beta-carboline-1-carboxylic acid], the 50% inhibitory concentration (IC50) under setting [1] was over 100 µM.
As for `COc1ccc2[nH]c3c(c2c1)C1CCN(C1)C3C(=O)OCc1ccccc1` (stereo not drawn) [Example 31, benzyl 7-methoxy-3,4,5,10-tetrahydro-1H-2,5-methanoazepino[3,4-b]indole-1-carboxylate trifluoroacetate], where the note is “read-out: TNF Release Assay Avg. IC50, LPS-stimulated differentiated U937 cells, TNFα by ELISA, trifluoroacetate”, the half-maximal inhibitory concentration (IC50) was determined as 46.2 µM.
Regarding `COc1ccc2[nH]c3c(c2c1)C1CCN(C1)C3C(=O)OCC(C)(C)C` (stereo not drawn) [Example 84, hydrochloride], the half-maximal inhibitory concentration (IC50) under setting [2] was found to be 41 µM.
Take `COc1ccc2[nH]c3c(c2c1)C1CCN(C1)C3C(=O)OCC(O)CO` (stereo not drawn) [Example 20, 2,3-dihydroxypropyl 7-methoxy-3,4,5,10-tetrahydro-1H-2,5-methanoazepino[3,4-b]indole-1-carboxylate hydrochloride]: the concentration for half-maximal inhibition (IC50) under setting [2] is over 100 µM.
For the compound `COC(=O)C1c2[nH]c3ccc(OC)cc3c2CCN1C` (stereo not drawn) [Example 149, methyl 6-methoxy-2-methyl-2,3,4,9-tetrahydro-1H-beta-carboline-1-carboxylate], under setting [1], the half-inhibitory concentration (IC50) is 8.25 µM.
Turning to `COc1ccc2[nH]c3c(c2c1)C(C)CNC3C(=O)O` (stereo not drawn) [Example 22, 6-methoxy-4-methyl-2,3,4,9-tetrahydro-1H-beta-carboline-1-carboxylic acid], under setting [1], the IC50 was found to be 92.2 µM.
As to `CCCCCCOC(=O)C1c2[nH]c3ccc(OC)cc3c2C2CCN1C2` (stereo not drawn) [Example 93, hydrochloride], the IC50 under setting [2] came out at 9.65 µM.
As for `CCCOC(=O)C1c2[nH]c3ccc(OC)cc3c2C2CCN1C2` (stereo not drawn) [Example 90, propyl 7-methoxy-3,4,5,10-tetrahydro-1H-2,5-methanoazepino[3,4-b]indole-1-carboxylate hydrochloride], the IC50 under setting [3] turned out to be 47.9 µM.
For the compound `COC(=O)C1c2[nH]c3ccc(O)cc3c2C2CCN1C2` (stereo not drawn) [Example 40, methyl 7-hydroxy-3,4,5,10-tetrahydro-1H-2,5-methanoazepino[3,4-b]indole-1-carboxylate hydrochloride], the half-inhibitory concentration (IC50) under setting [2] came out at 25.5 µM.
For `O=C(O)C1NCCc2c1[nH]c1ccc(F)cc21` (stereo not drawn) [Example 94, 6-fluoro-2,3,4,9-tetrahydro-1H-beta-carboline-1-carboxylic acid trifluoroacetate], under setting [1], the 50% inhibitory concentration (IC50) is over 100 µM.
Same read-out and setting: the result for `NC(=O)c1ccc2[nH]c3c(c2c1)CCNC3C(=O)O` (stereo not drawn) [Example 88, 6-(aminocarbonyl)-2,3,4,9-tetrahydro-1H-beta-carboline-1-carboxylic acid trifluoroacetate hydrate] reads over 100 µM.
For `COCCOC(=O)C1c2[nH]c3ccc(OC)cc3c2C2CCN1C2` (stereo not drawn) [Example 35, hydrochloride], under setting [3], the IC50 turned out to be 93.2 µM.
`COC(=O)C1c2[nH]c3ccc(O)cc3c2CCN1C` (stereo not drawn) [Example 150, methyl 6-hydroxy-2-methyl-2,3,4,9-tetrahydro-1H-beta-carboline-1-carboxylate]: the half-maximal inhibitory concentration (IC50) (read-out: TNF Release Assay Avg. IC50, LPS-stimulated differentiated U937 cells, TNFα by ELISA) came out at 0.523 µM.
As for `CSc1ccc2[nH]c3c(c2c1)C1CCN(C1)C3C(=O)O` (stereo not drawn) [Example 50], under “Homo sapiens, U-937, 4 h, LPS-stimulated differentiated U937 cells, TNFα by ELISA, read-out: TNF Release Assay Avg. IC50”, the half-maximal inhibitory concentration (IC50) stood at 15.3 µM.
For the compound `CCOC(=O)C1c2[nH]c3ccc(OC)cc3c2C2CCN1C2` (stereo not drawn) [Example 92, ethyl 7-methoxy-3,4,5,10-tetrahydro-1H-2,5-methanoazepino[3,4-b]indole-1-carboxylate trifluoroacetate], the IC50 under setting [2] is 5.61 µM.
On the same count and under the same terms, the result for `COc1ccc2[nH]c3c(c2c1)C1CCN(C1)C3C(=O)OC1C(C)(C)CCCC1(C)C` (stereo not drawn) [Example 152, 2,2,6,6-tetramethylcyclohexyl 7-methoxy-3,4,5,10-tetrahydro-1H-2,5-methanoazepino[3,4-b]indole-1-carboxylate trifluoroacetate] reads 21.8 µM.
`O=C(O)C1NCCc2c1[nH]c1ccc(O)cc21` (stereo not drawn) [Example 33, 6-hydroxy-2,3,4,9-tetrahydro-1H-beta-carboline-1-carboxylic acid hydrochloride]: the half-maximal inhibitory concentration (IC50) under setting [1] was over 100 µM.
